The target of this assay is T1, dual specificity phosphatase 22 (DUSP22) (Homo sapiens, UniProt Q9NRW4).
T1 construct: recombinant DUSP22 from pET-28a(+)-DUSP22, purified from E. coli BL21(DE3)
T1 sequence (Q9NRW4 2-184): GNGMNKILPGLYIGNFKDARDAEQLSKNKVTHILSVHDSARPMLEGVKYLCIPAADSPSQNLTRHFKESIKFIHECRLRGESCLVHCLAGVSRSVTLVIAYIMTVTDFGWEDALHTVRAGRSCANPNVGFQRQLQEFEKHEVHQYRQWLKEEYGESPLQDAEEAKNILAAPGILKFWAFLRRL
The assay can be described thus: fluorescent 3-OMFP phosphatase inhibition assay in droplet microfluidic chip (microwell plate IC50 […]). It is filed as biochemical.

For orientation: IC50 means the concentration that gives 50% inhibition.

`CCN(N=O)c1ccc(O)c(O)c1` [ethyl-3,4-dephostatin] returned a 50% inhibitory concentration (IC50) of 5.79 ± 1.09 µM.

The values are drawn from publication PMC9496282, “Analysis of Phosphatase Activity in a Droplet-Based Microfluidic Chip” (Biosensors, 2022).
